Biological target: T1, Bromodomain-containing protein 4 [368-440] (Homo sapiens, UniProt O60885)
T1 construct: 368-440
Test: BET BRD Assay
Method: 3x Complete Substrate plus Inhibitor Solution in Assay Medium (Opti-MEM I Reduced Serum Medium, no phenol red, and no serum) was prepared just before measuring BRET. This solution consisted of a 1:166 dilution of NanoBRET Nano-Glo Substrate plus a 1:500 dilution of Extracellular NanoLuc Inhibitor in Assay Medium. For a 96-well plate, 30 ul of NanoBRET Nano-Glo Substrate, 10 ul of Extracellular NanoLuc Inhibitor and 4,960 ul of Assay Medium were mixed to produce 5 ml of 3x Complete Substrate plus Inhibitor Solution, followed with gently mixing by inversion 5-10 times in a conical tube. (The final concentration of Extracellular NanoLuc Inhibitor in the 3x solution was 60 uM, for a working concentration of 20 uM. Use 3x Complete Substrate plus Inhibitor Solution within 2 hours. Discard any remaining solution). […] Donor emission wavelength (e.g., 450 nm) and acceptor emission wavelength (e.g., 610 nm) were measured by using the GloMax Discover System or other NanoBRET Assay-compatible luminometer (it is recommended measuring BRET within 10 minutes after adding NanoBRET Nano-Glo Substrate plus Extracellular NanoLuc Inhibitor Solution. However, BRET can be measured for up to 2 hours, but there will be some loss of luminescence signal). […]

IC50: 0.0102 µM
Compound: Cc1cc(-c2ccc(-n3ccn(C)c3=O)c(Cl)c2)c(O)c(-c2cccc(N3CCN(C(C)(C)C)CC3)c2)n1 [US20240226096, Example I-2]
